# In PubChem BioAssay AID1418 (Emory University Molecular Libraries Screening Center, 2008):
# Calls of active or inactive are those of the source. How the calls were made is not given here.
# Molecular target: Induced myeloid leukemia cell differentiation protein Mcl-1 (Homo sapiens) (UniProt Q07820)
# Experiment: blockers of Bid binding to Mcl-1 – biochemical, TR-FRET, dose response (AID 1418)
# Conditions: Mcl-1/Bid peptide binding, TR-FRET (europium/Dy647), 2 hr
# Induced myeloid leukemia cell differentiation protein Mcl-1 (Homo sapiens), sequence (Q07820 whole entry, looked up): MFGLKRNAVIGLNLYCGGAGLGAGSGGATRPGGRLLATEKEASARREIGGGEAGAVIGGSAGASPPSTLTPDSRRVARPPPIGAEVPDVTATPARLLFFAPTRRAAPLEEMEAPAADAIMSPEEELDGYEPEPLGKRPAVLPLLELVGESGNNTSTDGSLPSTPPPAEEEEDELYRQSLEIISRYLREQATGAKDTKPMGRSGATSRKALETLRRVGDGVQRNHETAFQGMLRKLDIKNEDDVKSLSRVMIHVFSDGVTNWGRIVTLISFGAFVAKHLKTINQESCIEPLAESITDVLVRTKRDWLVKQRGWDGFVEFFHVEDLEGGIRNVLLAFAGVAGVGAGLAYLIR
row,SMILES,IC50
1,CCc1ccc(CCC(=O)Nc2ccc(C)cc2C)o1,> 54000 nM (inactive)
2,CC1=C(SCCC#N)S/C(=C2\SC(C)=C(SCCC#N)S2)S1,2840 nM
3,COc1cccc(CNC(=O)CSCc2cnn(-c3ccccc3)c2-n2cccc2)c1OC,> 54000 nM (inactive)
4,O=C(CSc1cccc[n+]1[O-])Nc1cc2c(cc1Cl)C(=O)c1ccccc1C2=O,9390 nM
5,O=C(N=Nc1c(O)[nH]c2ccc(Cl)cc12)c1cc(-c2cccs2)nc2ccccc12,570 nM
6,O=C1C(=Cc2cccn2-c2ccc(O)cc2)C(=O)c2ccccc21,2530 nM
7,Cc1nnc(Sc2cc(C(=O)NC3CC3)c3ccccc3n2)s1,> 54000 nM (inactive)

# Results, then the compound that gave them:
row,IC50,SMILES
1,> 54000 nM (inactive),CCCN1CCC(NC(=S)Nc2ccc(C(=O)OCC)cc2)CC1
2,1710 nM,O=C(N/N=C/c1ccc([N+](=O)[O-])o1)c1cc2c(ccc3ccccc32)o1
3,850 nM,COc1cc(-c2ccc(Nc3ccccc3C(=O)O)c(OC)c2)ccc1Nc1ccccc1C(=O)O
4,24200 nM,C#CCOCCOCCOCCNc1nc(N2CCN(C(=O)[C@H](Cc3cc4ccccc4[nH]3)n3cc([C@@H](N)CC(C)C)nn3)CC2)nc(N2CCN(C(=O)[C@H](Cc3cc4ccccc4[nH]3)n3cc([C@@H](N)CC(C)C)nn3)CC2)n1
5,2430 nM,CCOc1ccc2nc(N3C(=O)/C(=C/c4ccc(Cl)cc4)NC3=S)sc2c1
